Source: patent US20070243201A1, “Method for Selecting Epitopes for Immunotherapy” (Igeneon Krebs-Immuntherapie Forschungs-und entwicklungs-AG, priority 2003, published 2007)

Tested on: immune serum
Experiment: Ep-CAM epitope mapping by solid phase peptide (spot) synthesis: binding of biotinylated serum IgG to immobilized decapeptides
Settings: immune serum of a patient after active immunotherapy with mAb17-1A (EpCAM antibody), taken 71 days after immunization; compared with pre-serum of day 1, which does not show this binding or shows it to a slight degree only; FIG. 1
Method: Protein G Sepharose Fast Flow (Amersham Biosciences) was packed into an HR 5 column (inner diameter 5 mm; Amersham Biosciences). The column was equilibrated with 5 column volumes of PBS buffer at a flow rate of 0.33 ml/min. Subsequently, serum was loaded at the same flow rate, followed by washing with further 5 column volumes. Elution was carried out with 0.2 M acetic acid +20% ethylene glycol, pH 2.7. The eluate was taken up in 1 M sodium bicarbonate buffer and thus brought to pH 8.6.
One aliquot of the purified serum was incubated with NHS-LC biotin for 1 h at room temperature. Subsequently, the sample was re-buffered via a Sephadex G25 gel filtration column (PD-10, Amersham Biosciences) so as to separate the biotinylated […] from free […], on the one hand, and to further transfer it into a medium suitable for the test system.
The spot synthesis was carried out by means of a modified method according to Frank (Tetrahedron 48 (1992) 9217-9232). Whatman 540 cellulose was dried over night in the desiccator. The membrane was then functionalized for 3 h with 0.2 M Fmoc-β alanine, 0.24 M diisopropyl carbodiimide and 0.4 M 1-methyl-imidazole. After washing with 3× dimethylformamide (DMF), the Fmoc group was cleaved off by treatment with 20% piperidine in DMF. The peptides were synthesized by means of the AutoSpot Robot ASP222 (INTAVIS, Germany). As the first amino acid, always a further β-alanine spacer was introduced. After the first β-alanine coupling, the remaining free amino groups were acetylated with 2% acetic anhydride. As the amino acids, Fmoc-protected Opfp esters of the amino acids (O-pentafluorophenyl, Novabiochem), dissolved in N-methyl pyrrolidone at a concentration of 0.3 M were used. Each amino acid was spotted twice per cycle. After each cycle, the Fmoc group was cleaved off with piperidine, as described above, and then the membrane was washed 6× with DMF. After the synthesis of the last amino acid, it was again acetylated, and then the side protection groups were cleaved off. At first, the membrane was treated with 90% trifluoroacetic acid, 3% triisobutyl silane, 1% phenol, 2% water and 4% dichloromethane for 30 minutes. Subsequently, the membrane was washed 5× with DCM, 3× with DMF and methanol and dried. This was followed by a further cleavage by treatment with 50% trifluoroacetic acid, 3% triisobutyl silane, 1% phenol, 2% water and 44% dichloromethane for two hours. […]
Since the major immune response is provided in the form of IgG, IgG was purified from the sera via protein G Sepharose. […] The concentration of the biotinylated IgG was determined via photometric absorption measurement at 280 nm, and after the addition of 0.2% sodium azide the material was stored at 4° C. […]

Sequence | binding of immune serum to the 10 mer peptides
ALQKEITTRY [compound 42] | increasingly binds
DLDPGQTLIY [compound 61] | increasingly binds
DPKFITSILY [compound 45] | increasingly binds
IADVAYYFEK [compound 53] | increasingly binds
